The target of the assay is T1, Renin (Homo sapiens, UniProt P00797).
T1 sequence (P00797 whole entry): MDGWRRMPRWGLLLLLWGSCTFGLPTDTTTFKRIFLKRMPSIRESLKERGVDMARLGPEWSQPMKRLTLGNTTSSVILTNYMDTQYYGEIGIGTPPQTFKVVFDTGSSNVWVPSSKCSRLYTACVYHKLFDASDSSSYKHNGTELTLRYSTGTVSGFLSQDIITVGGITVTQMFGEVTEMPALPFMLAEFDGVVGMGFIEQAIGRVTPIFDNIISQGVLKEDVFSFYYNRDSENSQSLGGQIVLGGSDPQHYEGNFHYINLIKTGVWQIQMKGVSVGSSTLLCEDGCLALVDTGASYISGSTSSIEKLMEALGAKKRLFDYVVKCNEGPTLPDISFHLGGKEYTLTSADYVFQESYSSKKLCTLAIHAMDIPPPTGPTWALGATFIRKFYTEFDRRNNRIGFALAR
Briefly: In Vitro Renin IC50 Determinations (Tandem GFP FRET Assay). The note with it: pH 7.4; 22 °C. From the text: The renin assay utilized a tandem Green Flourescent Protein (tGFP) substrate that was hydrolyzed by human rennin.

The structures appear in SMILES notation.

For the compound `CCc1nc(N)nc(NCCc2ccccc2NC(=O)c2ccc(N)c(OC)c2)c1-c1ccc2c(c1)N(CCCOC)C(=O)C(C)(C)O2` [4-amino-N-{2-[2-({2-amino-6-ethyl-5-[4-(3-methoxypropyl)-2,2-dimethyl-3-oxo-3,4-dihydro-2H-1,4-benzoxazin-6-yl]pyrimidin-4-yl}amino)ethyl]phenyl}-3-methoxybenzamide], the IC50 was found to be 336 nM.

`CCc1nc(N)nc(N)c1-c1ccc(NCc2cc(F)cc(F)c2)cc1` [5-(4-{[(3,5-difluorophenyl)methyl]amino}phenyl)-6-ethylpyrimidine-2,4-diamine] came in with an IC50 of 6560 nM.

In the case of `CCc1nc(N)nc(N)c1-c1ccc2c(c1)N(CCCOC)CCC2` [6-ethyl-5-[1-(3-methoxypropyl)-1,2,3,4-tetrahydroquinolin-7-yl]pyrimidine-2,4-diamine], half-maximal inhibition (IC50) required 691 nM.

As for `CCc1nc(N)nc(N)c1-c1ccc2c(c1)N(CCCOC)C(c1ccccc1)CC2` (stereo unspecified) [6-ethyl-5-[1-(3-methoxypropyl)-2-phenyl-1,2,3,4-tetrahydroquinolin-7-yl]pyrimidine-2,4-diamine], the IC50 stood at 58 nM. Compared with the last compound, the IC50 is about 12-fold lower.

In turn, `CCc1nc(N)nc(N)c1-c1ccc2c3ccccc3n(CCCOC)c2c1` [6-ethyl-5-[9-(3-methoxypropyl)-9H-carbazol-2-yl]pyrimidine-2,4-diamine] had an IC50 of 173 nM.

Regarding `CCc1nc(N)nc(NCCNS(=O)(=O)c2ccc3ccccc3c2)c1-c1ccc2c(c1)N(CCCOC)C(=O)C(C)(C)O2` [N-[2-({2-amino-6-ethyl-5-[4-(3-methoxypropyl)-2,2-dimethyl-3-oxo-3,4-dihydro-2H-1,4-benzoxazin-6-yl]pyrimidin-4-yl}amino)ethyl]naphthalene-2-sulfonamide], the IC50 stood at 27 nM. Compared with the last compound, the IC50 is about 6.4-fold lower.

As usually defined, the IC50 is the concentration that gives 50% inhibition. Lower therefore signals higher potency.

For the origin of these results see BindingDB's records for doi:10.1016/j.ab.2006.10.017 (Pfizer, 2007).
